Results as given in publication PMC4912613, “A broad analysis of resistance development in the malaria parasite” (Nature Communications, 2016).
Read-outs that look alike come from different tables or passages of the source.

Tests used:
[1] = tested on: GNF156R (PfCARL L830V, S1076I and M81I, parent Dd2); experiment: Cross-resistance EC50 assay, GNF156R; format: cell-based; settings: Plasmodium falciparum, SYBR green 72 hour assay, asynchronized parasites, 96-well or 1536-well format
Description: (§1) To evaluate potential overlapping activity against known antimalarial drug targets, we performed dose-response studies with each compound against our assembled set of drug-resistant lines and their corresponding parents, in an asexual blood stage proliferation assay (Table 1). Comparisons were made to the drug-sensitive strain 3D7 when a parent was unavailable (TM90C2A, W2 and Dd2). As laboratories conducted EC50 assays with different strains and protocols, all comparisons were made between assays from the same laboratory and under the same assay conditions. Compounds displaying >5-fold EC50 shifts relative to the parent or sensitive strain were flagged as having potentially non-novel targets. Average fold shifts per strain ranged from 0.82 to 2.34, with a median of 1.23 indicating there was not common resistance to any one resistant clone. No resistance patterns were observed when classifying the compounds based on chemical structure, but this was not surprising given the diversity of compounds chosen. On the other hand, given that these confirmed compounds were derived from larger unconfirmed hit lists to which some filtration criteria may have been applied (for example, elimination of obvious dihydrofolate reductase inhibitors[32]), some[10][11][12][13] pre-existing bias may exist in the set. […]
(§2) Alternatively, a SYBR Green-based proliferation approach was used for the 72-h assay, as previously described. Briefly, a culture of either synchronized or asynchronous parasitized RBCs (0.3% parasitemia and 4% haematocrit) in screening medium (identical to supplemented medium above except no serum was added) was exposed to serial drug dilutions. Plates were incubated at 37 °C and gassed with 93% N2, 4% CO2 and 3% O2 for 72 h. Following incubation, 10 × SYBR Green I (Invitrogen; supplied in 10,000 × concentration) in lysis buffer ([…], 5 mM EDTA, 0.16% Saponin wt per vol and 1.6% Triton X vol per vol) was added to the wells and the plates were incubated overnight at room temperature before plate reading. EC50 assays were repeated three times, taking the average EC50 value from each assay set, and removing any outliers using a single iteration of Grubbs' test, eliminating values with z-scores above the critical z-value (α=0.05). The raw EC50 values for synchronized parasites assayed in a 384-well format are listed in Supplementary Data 4. The raw EC50 values for asynchronous parasites assayed in a 96 or 1536-well format are listed in Supplementary Data 5.
(§3) EC50 values for each strain were compared with those of the corresponding parent strain to determine fold-shift changes and identify resistance. To minimize the cause variance between assays, all comparisons were conducted between strains assayed under identical conditions. A one-way ANOVA followed by a Dunnet's post-test was conducted in GraphPad Prism to identify significant changes between the parent and resistant strain.

[2] = tested on: ATQ-R4 (cytb M133I and L144S, parent 3D7); experiment: Cross-resistance EC50 assay, ATQ-R4; format: cell-based, Plasmodium falciparum; settings: Plasmodium falciparum, 3D7; SYBR green 72 hour assay; asynchronized parasites; 96-well or 1536-well format; ATQ-R4
Description: as §1, §2, §3

3D7 = experiment: Cross-resistance EC50 assay, 3D7 parent / sensitive strain; format: cell-based; settings: Plasmodium falciparum
Outline: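 P. falciparum asexual blood-stage proliferation, parent/sensitive strain of each resistant clone; 48-h assay with rings (0.5% parasitemia, 2.0% haematocrit) in RPMI-1640/5% AlbuMAX, ^3H-hypoxanthine added at 24 h, normalized to no-drug and 2 μM artesunate controls; alternatively 72-h SYBR Green assay (0.3% parasitemia, 4% haematocrit). EC50s from triplicate fits.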

Dd2 = experiment: Cross-resistance EC50 assay, Dd2 parent; format: cell-based, Plasmodium falciparum; settings: for EC50: Plasmodium falciparum, DD2, 72 h
Description: Multidrug resistance alleles, including mutations in P. falciparum chloroquine resistance transporter (pfcrt) and P. falciparum multi-drug resistance transporter 1 (pfmdr1) are very common in field isolates. Therefore, we sought to assess the degree to which pre-existing resistance alleles would contribute to a loss of potency for this diverse collection of small molecule compounds. Fifteen clones derived from three main parent lines were chosen to maximize diversity in mutated pathways and genetic backgrounds, thus representing the variety of resistance seen in the field: 3D7 (ref. [23]), W2 (ref. [24]) or Dd2 (ref. [25]). The 3D7 line originates from the clone of a Netherlands clinical isolate strain[23][26] and is generally considered to be drug sensitive, though it does convey resistance to sulfadoxine. Conversely, W2 (ref. [24], [27]) and Dd2 (ref. [25]) are multi-drug-resistant lines originating from the Indochina III/CDC isolate, which contain point mutations in pfcrt as well as amplifications in pfmdr1 and GTP cyclohydrolase.
as §1, §2, §3

[3] = SYBR green 72 hour assay, asynchronized parasites, 96-well or 1536-well format, 3D7 parent, read-out: 3D7 (PARENT) EC50 (µM) Average EC50
[4] = SYBR green 72 hour assay, synchronized parasites, 384-well format, strain 3D7 (parent), read-out: 3D7 (PARENT) Average EC50
[5] = hypoxanthine 48-hour assay, synchronized parasites, 96-well format, strain 3D7 (parent), read-out: 3D7 (PARENT) Average EC50
[6] = read-out: Dd2 (PARENT) Average EC50
[7] = read-out: Dd2 (PARENT) EC50 (µM) Average EC50
[8] = hypoxanthine 48-hour assay, synchronized parasites, 96-well format, strain 3D7-C9-WT (parent of PfATP4 Mut3), read-out: 3D7-C9-WT (PARENT) Average EC50

OC(CNC1CCCCC1)Cn1c2ccccc2c2ccccc21 (stereo not shown) [MMV009063]
EC50 [1]: 0.095 µM
EC50 [2]: 0.668 µM
EC50 (3D7; [3]): 0.281 µM
EC50 (3D7; [4]): 0.464 µM
EC50 (3D7; [5]): 0.785 µM
EC50 (Dd2; [6]): 0.188 µM
EC50 (Dd2; [7]): 0.364 µM

CN(C)CCCNCc1ccc(-c2ccc(Cl)c(Cl)c2)o1 [MMV673964]
EC50 [1]: 1.33 µM
EC50 [2]: 0.163 µM
EC50 (3D7; [3]): 0.068 µM
EC50 (3D7; SYBR green 72 hour assay, synchronized parasites, 384-well format, 3D7 parent, read-out: 3D7 (PARENT) Average EC50): 0.29 µM
EC50 (3D7; [5]): 0.633 µM
EC50 (3D7; [8]): 0.575 µM
EC50 (Dd2; [6]): 0.426 µM
EC50 (Dd2; [7]): 1.12 µM

CCCN(CCC)CC(O)COc1ccccc1C(=O)Nc1ccccc1 (stereo not shown) [MMV006455]
EC50 [1]: 0.083 µM
EC50 [2]: 0.674 µM
EC50 (3D7; [3]): 0.148 µM
EC50 (3D7; [4]): 2.43 µM
EC50 (3D7; [5]): 0.529 µM
EC50 (Dd2; [6]): 1.21 µM
EC50 (Dd2; [7]): 0.408 µM

Brc1ccc(Nc2nc3ccccc3nc2Nc2ccc(Br)cc2)cc1 [MMV007224]
EC50 [1]: 0.712 µM
EC50 [2]: 0.766 µM
EC50 (3D7; [3]): 0.709 µM
EC50 (3D7; [4]): 0.367 µM
EC50 (3D7; [5]): 0.284 µM
EC50 (3D7; [8]): 0.398 µM
EC50 (Dd2; [6]): 0.274 µM
EC50 (Dd2; [7]): 0.714 µM

CCOc1cc2c(cc1OCC)C(c1cc(Cl)ccc1O)NCC2 (stereo not shown) [MMV000478]
EC50 [1]: 0.764 µM
EC50 [2]: 0.833 µM
EC50 (3D7; [3]): 0.613 µM
EC50 (3D7; [4]): 1.85 µM
EC50 (3D7; [5]): 1.07 µM
EC50 (3D7; [8]): 1.28 µM
EC50 (Dd2; [6]): 0.803 µM
EC50 (Dd2; [7]): 0.843 µM

O=C(NCC(CCCN1CCC(c2c[nH]c3ccccc23)CC1)c1ccccc1)Nc1ccc(Cl)c(Cl)c1 (stereo not shown) [MMV029272]
EC50 [1]: 0.332 µM
EC50 [2]: 9.56 µM
EC50 (3D7; [3]): 2.87 µM
EC50 (3D7; [4]): 0.17 µM
EC50 (3D7; [5]): 0.139 µM
EC50 (3D7; [8]): 0.115 µM
EC50 (Dd2; [6]): 0.824 µM
EC50 (Dd2; [7]): 0.285 µM

Nc1ncc(-c2cn[nH]c2)cc1-c1nc2ccc(F)cc2[nH]1 [MMV023367]
EC50 [1]: 2.54 µM
EC50 [2]: 1.67 µM
EC50 (3D7; [3]): 1.13 µM
EC50 (3D7; [4]): 0.519 µM
EC50 (3D7; [5]): 0.303 µM
EC50 (3D7; [8]): 0.269 µM
EC50 (Dd2; [6]): 0.654 µM
EC50 (Dd2; [7]): 1.96 µM

CC(C)c1cccc(C(NC(=O)C2Cc3ccccc3CN2C(=O)c2cccc(N3CCOCC3)c2)C2CCCC2)c1 (stereo not shown) [MMV028038]
EC50 [1]: 0.654 µM
EC50 [2]: 1.01 µM
EC50 (3D7; [3]): 1.09 µM
EC50 (3D7; [4]): 0.822 µM
EC50 (3D7; [5]): 0.577 µM
EC50 (3D7; [8]): 0.833 µM
EC50 (Dd2; [6]): 0.299 µM
EC50 (Dd2; [7]): 0.622 µM

CN1CCN(c2ccc(Nc3c4ccccc4nc4ccccc34)cc2)CC1 [MMV006172]
EC50 [1]: 0.32 µM
EC50 [2]: 0.217 µM
EC50 (3D7; [3]): 0.126 µM
EC50 (3D7; [4]): 0.046 µM
EC50 (3D7; [5]): 0.089 µM
EC50 (3D7; [8]): 0.097 µM
EC50 (Dd2; [6]): 0.168 µM
EC50 (Dd2; [7]): 0.298 µM

CCCCCCCN(Cc1ccc(OC(C)(C)C(=O)OCC)cc1)C(=O)Nc1ccc(Cl)cc1OCC [MMV021735]
EC50 [1]: 1.08 µM
EC50 [2]: 0.056 µM
EC50 (3D7; [3]): 0.054 µM
EC50 (3D7; [4]): 0.383 µM
EC50 (3D7; [5]): 0.459 µM
EC50 (3D7; [8]): 0.543 µM
EC50 (Dd2; [6]): 0.258 µM
EC50 (Dd2; [7]): 1.29 µM

O=C(NC(c1ccccc1)c1ccc2cccnc2c1O)c1ccccc1 (stereo not shown) [MMV666080]
EC50 [1]: 0.822 µM
EC50 [2]: 0.746 µM
EC50 (3D7; [3]): 0.723 µM
EC50 (3D7; [4]): 0.682 µM
EC50 (3D7; [5]): 0.845 µM
EC50 (3D7; [8]): 3.92 µM
EC50 (Dd2; [6]): 0.426 µM
EC50 (Dd2; [7]): 0.886 µM

COc1ccc(N2CCN(C(CNC(=O)C3CCCCC3)c3ccc4c(c3)OCO4)CC2)cc1 (stereo not shown) [MMV019662]
EC50 [1]: 0.405 µM
EC50 [2]: 0.716 µM
EC50 (3D7; [3]): 0.358 µM
EC50 (3D7; [4]): 0.98 µM
EC50 (3D7; [5]): 0.34 µM
EC50 (3D7; [8]): 0.81 µM
EC50 (Dd2; [6]): 0.357 µM
EC50 (Dd2; [7]): 0.242 µM

c1cc(-c2cnc3ccc(-c4ccc(N5CCOCC5)cc4)nn23)ccn1 [MMV668311]
EC50 [1]: 0.031 µM
EC50 [2]: 0.029 µM
EC50 (3D7; [3]): 0.014 µM
EC50 (3D7; [4]): 0.033 µM
EC50 (3D7; [5]): 0.05 µM
EC50 (3D7; [8]): 0.018 µM
EC50 (Dd2; [6]): 0.056 µM
EC50 (Dd2; [7]): 0.039 µM

COc1ccc(C(=O)C2CC2c2ccc(Cl)cc2)cc1 (stereo not shown) [MMV665924]
EC50 [1]: 1.17 µM
EC50 [2]: 3.41 µM
EC50 (3D7; [3]): 2.46 µM
EC50 (3D7; [4]): 0.976 µM
EC50 (3D7; [5]): 0.824 µM
EC50 (3D7; [8]): 0.487 µM
EC50 (Dd2; [6]): 1.19 µM
EC50 (Dd2; [7]): 1.58 µM

CN(C)CCCN(C)C(=O)C1Cc2cc(-c3ccccc3)ccc2N1S(=O)(=O)c1ccccc1 (stereo not shown) [MMV028895]
EC50 [1]: 3.92 µM
EC50 [2]: 1.07 µM
EC50 (3D7; [3]): 0.625 µM
EC50 (3D7; [4]): 0.049 µM
EC50 (3D7; [5]): 0.081 µM
EC50 (3D7; [8]): 0.052 µM
EC50 (Dd2; [6]): 0.349 µM
EC50 (Dd2; [7]): 6.01 µM
EC50 fold-shift, Dd2 compared with 3D7 (Dd2; loss of efficacy): 7.1 ×

CCC(C)NCC(O)(c1ccc(Cl)cc1)c1ccc(Cl)cc1 (stereo not shown) [MMV665928]
EC50 [1]: 0.682 µM
EC50 [2]: 0.09 µM
EC50 (3D7; [3]): 0.028 µM
EC50 (3D7; [4]): 0.972 µM
EC50 (3D7; [5]): 0.494 µM
EC50 (3D7; [8]): 1.16 µM
EC50 (Dd2; [6]): 0.427 µM
EC50 (Dd2; [7]): 0.331 µM
